Like-named read-outs stand apart in the source and are kept apart here.
Columns and labels:
[1] = biological target: GDP KRAS G12D (Homo sapiens, UniProt P01116, G12D); experiment: SPR binding affinity, GDP KRAS G12D; conditions: GDP-bound KRAS G12D
[2] = biological target: GppNHp KRAS G12D (Homo sapiens, UniProt P01116, G12D); experiment: SPR binding affinity, GppNHp KRAS G12D; conditions: GppNHp-bound KRAS G12D
[3] = biological target: T1, Avi-KRAS G12D (1-169) GppNHp/RAF1 RBD-3×FLAG (52-151) (Homo sapiens, UniProt P01116, G12D); experiment: HTRF Raf1-KRAS G12D-GppNHp disruption assay; assay type: biochemical; conditions: 1 h incubation
T1 construct: Avi-KRAS G12D (1-169) GppNHp
T1 sequence (P01116 1-169 isoform P01116-2 G12D limits assumed): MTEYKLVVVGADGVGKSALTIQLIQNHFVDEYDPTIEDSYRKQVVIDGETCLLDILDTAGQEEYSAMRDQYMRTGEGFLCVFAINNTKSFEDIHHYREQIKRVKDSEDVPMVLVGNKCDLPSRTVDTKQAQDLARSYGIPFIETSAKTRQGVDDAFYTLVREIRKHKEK
Summary of the method: (§1)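 HTRF read-out (320 nm excitation, 615 nm emission) after two 1 h room-temperature incubations, first with protein mix, then detection reagents. Ten-point dilution series starting at 100 μM; results given as % activity relative to DMSO at 100%.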

[4] = biological target: T2, Avi-KRAS G12D/Q25A (1-169) GppNHp/3×FLAG-PI3KCA (157-299) (Homo sapiens, UniProt P01116, G12D/Q25A); experiment: HTRF PI3KCA-KRAS G12D/Q25A-GppNHp disruption assay; assay type: biochemical; conditions: 1 h incubation
T2 construct: Avi-KRAS G12D/Q25A (1-169) GppNHp
T2 sequence (P01116 1-169 isoform P01116-2 G12D/Q25A limits assumed): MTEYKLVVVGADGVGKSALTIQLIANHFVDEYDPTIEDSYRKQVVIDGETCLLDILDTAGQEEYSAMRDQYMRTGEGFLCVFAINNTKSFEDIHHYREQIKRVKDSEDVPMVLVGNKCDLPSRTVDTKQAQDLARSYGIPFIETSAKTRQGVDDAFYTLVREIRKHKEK
Summary of the method: as §1

[5] = system: pERK in GP2d cells (KRAS G12D); experiment: Cell-based pERK HTRF assay; conditions: 60 min incubation
Summary of the method: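 GP2d cells (DMEM, 10% FBS) treated 60 min with compounds in a 9-point half-log series from 1 μM top concentration, 0.25% DMSO. Lysates read for pERK by HTRF (d2/Eu cryptate antibodies) after 4–24 h at room temperature; emission at 615 nm.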

Chain of GDP KRAS G12D (P01116 1-188 isoform P01116-2 G12D): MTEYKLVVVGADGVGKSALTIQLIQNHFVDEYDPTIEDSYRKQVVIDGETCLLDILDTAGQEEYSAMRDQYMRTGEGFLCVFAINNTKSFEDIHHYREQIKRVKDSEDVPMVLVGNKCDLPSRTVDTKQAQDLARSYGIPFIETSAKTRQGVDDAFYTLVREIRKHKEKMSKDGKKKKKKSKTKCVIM
Chain of GppNHp KRAS G12D (P01116 1-188 isoform P01116-2 G12D): as above

Row | IC50 ([5]; read-out: pERK-Gp2D-1hr) [nM] | Compound | Kd [1] [nM] | Kd [2] [nM] | IC50 [3] [nM] | IC50 [4] [nM] | IC50 ([5]; GP2d, 1 h) [nM]
1 | – | Nc1nc2c(-c3c(C(F)(F)F)cc4c(N[C@@H]5CCNC5)nc(OC[C@@]56CCCN5C[C@H](F)C6)nc4c3F)ccc(F)c2s1 (atropisomer, axis not shown) [Compound 248] | ≤ 100 | ≤ 100 | ≤ 100 | 100 to 1000 | > 1000
2 | – | Nc1nc2c(-c3c(C(F)(F)F)cc4c(N5CC6CCC(C5)N6)nc(OC[C@@]56CCCN5C[C@H](F)C6)nc4c3F)ccc(F)c2s1 (single isomer, unassigned) [Compound 245] | ≤ 100 | ≤ 100 | ≤ 100 | ≤ 100 | ≤ 100
3 | – | Nc1nc2c(-c3c(C(F)(F)F)cc4c(NC5CNC5)nc(OCC56CCCN5CCC6)nc4c3F)ccc(F)c2s1 [Compound 120] | ≤ 100 | ≤ 100 | 100 to 1000 | 100 to 1000 | > 1000
4 | – | Nc1nc2c(-c3c(Cl)cc4c(N5CC6CCC(C5)N6)nc(OCC56CCCN5CCC6)nc4c3F)ccc(F)c2s1 [Compound 157, 4-(4-(3,8-diazabicyclo[3.2.1]octan-3-yl)-6-chloro-8-fluoro-2-((tetrahydro-1H-pyrrolizin-7a(5H)-yl)methoxy)quinazolin-7-yl)-7-fluorobenzo[d]thiazol-2-amine] | ≤ 100 | ≤ 100 | 100 to 1000 | 100 to 1000 | 100 to 1000
5 | – | Nc1nc2c(-c3c(C(F)(F)F)cc4c(N5CC6CCC(C5)N6)nc(OCC56CCCN5CCC6)nc4c3F)ccc(F)c2s1 [Compound 158, 4-(4-(3,8-diazabicyclo[3.2.1]octan-3-yl)-8-fluoro-2-((tetrahydro-1H-pyrrolizin-7a(5H)-yl)methoxy)-6-(trifluoromethyl)quinazolin-7-yl)-7-fluorobenzo[d]thiazol-2-amine] | ≤ 100 | ≤ 100 | 100 to 1000 | 100 to 1000 | ≤ 100
6 | – | Nc1nc2c(-c3c(C(F)(F)F)cc4c(N5CC6CCC(C5)N6)nc(OC[C@@]56CCCN5C[C@H](F)C6)nc4c3F)ccc(F)c2s1 [Compound 219, 4-(4-(3,8-diazabicyclo[3.2.1]octan-3-yl)-8-fluoro-2-(((2R,7aS)-2-fluorotetrahydro-1H-pyrrolizin-7a(5H)-yl)methoxy)-6-(trifluoromethyl)quinazolin-7-yl)-7-fluorobenzo[d]thiazol-2-amine] | ≤ 100 | ≤ 100 | ≤ 100 | 100 to 1000 | ≤ 100
7 | – | CN1C2CCC1CN(c1nc(OC[C@@]34CCCN3C[C@H](F)C4)nc3c(F)c(-c4ccc(F)c5sc(N)nc45)c(C(F)(F)F)cc13)C2 [Compound 221] | ≤ 100 | 1000 to 10000 | 1000 to 10000 | 1000 to 10000 | 100 to 1000
8 | ≤ 100 | Nc1nc2c(-c3c(C(F)(F)F)cc4c(N5CC6CC5CN6)nc(OC[C@@]56CCCN5C[C@H](F)C6)nc4c3F)ccc(F)c2s1 (stereo partly shown) [Compound 241] | ≤ 100 | ≤ 100 | 100 to 1000 | 100 to 1000 | –
9 | – | N#Cc1c(N)sc2c(F)ccc(-c3c(C(F)(F)F)cc4c(N5C[C@H]6CC[C@@H](C5)N6)nc(OC[C@@]56CCCN5C[C@H](F)C6)nc4c3F)c12 [Compound 255, 4-(4-((1R,5S)-3,8-diazabicyclo[3.2.1]octan-3-yl)-8-fluoro-2-(((2R,7aS)-2-fluorotetrahydro-1H-pyrrolizin-7a(5H)-yl)methoxy)-6-(trifluoromethyl)quinazolin-7-yl)-2-amino-7-fluorobenzo[b]thiophene-3-carbonitrile] | ≤ 100 | ≤ 100 | ≤ 100 | 100 to 1000 | ≤ 100
10 | – | CN(c1nc(OC[C@@]23CCCN2C[C@H](F)C3)nc2c(F)c(-c3ccc(F)c4sc(N)nc34)c(C(F)(F)F)cc12)C1C2C[C@H]1CN2 (stereo partly shown) [Compound 289] | ≤ 100 | 100 to 1000 | 100 to 1000 | 100 to 1000 | –
